Data on 3 compounds can be found in patent US20060142336A1, “N-sulfonylpiperidines as metalloproteinase inhibitors (tace)” (priority 2002, published 2006).

The target of data set [1] is T1, proTNFα convertase enzyme (TACE) (Homo sapiens, UniProt P78536).
T1 construct: a partially purified, isolated enzyme assay, the enzyme being obtained from the membranes of THP-1; endogenous in cells; host or cells: THP-1 cell membranes (partially purified)
The experiment in a line: partially purified isolated enzyme assay for proTNFα convertase (TACE) inhibition. It is filed as biochemical. Conditions: 10 μM of compound; enzyme from membranes of THP-1. As to the method:
Recombinant human proMMP13 may be expressed and purified as described by Knauper et al. [V. Knauper et al., (1996) […] 271:1544-1550 (1996)]. […] Activity is determined by measuring the fluorescence at λex 328 nm and λem 393 nm. Percent inhibition is calculated as follows: % Inhibition is equal to the [Fluorescenceplus inhibitor−Fluorescencebackground] divided by the [Fluorescenceminus inhibitor−Fluorescencebackground].
The ability of the compounds to inhibit proTNFα convertase enzyme (TACE) may be assessed using a partially purified, isolated enzyme assay, the enzyme being obtained from the membranes of THP-1 as described by K. M. Mohler et al., (1994) Nature 370:218-220. The purified enzyme activity and inhibition thereof is determined by incubating the partially purified enzyme in the presence or absence of test compounds using the substrate 4′,5′-Dimethoxy-fluoresceinyl Ser.Pro.Leu.Ala.Gln.Ala.Val.Arg.Ser.Ser.Ser.Arg.Cys(4-(3-succinimid-1-yl)-fluorescein)-NH2 in assay buffer (50 mM Tris HCl, pH 7.4 containing 0.1% (w/v) Triton X-100 and 2 mM CaCl2), at 26° C. for 4 hours. The amount of inhibition is determined as for MMP13 except λex 485 nm and λem 538 nm were used. […]

T1 sequence (P78536 215-824): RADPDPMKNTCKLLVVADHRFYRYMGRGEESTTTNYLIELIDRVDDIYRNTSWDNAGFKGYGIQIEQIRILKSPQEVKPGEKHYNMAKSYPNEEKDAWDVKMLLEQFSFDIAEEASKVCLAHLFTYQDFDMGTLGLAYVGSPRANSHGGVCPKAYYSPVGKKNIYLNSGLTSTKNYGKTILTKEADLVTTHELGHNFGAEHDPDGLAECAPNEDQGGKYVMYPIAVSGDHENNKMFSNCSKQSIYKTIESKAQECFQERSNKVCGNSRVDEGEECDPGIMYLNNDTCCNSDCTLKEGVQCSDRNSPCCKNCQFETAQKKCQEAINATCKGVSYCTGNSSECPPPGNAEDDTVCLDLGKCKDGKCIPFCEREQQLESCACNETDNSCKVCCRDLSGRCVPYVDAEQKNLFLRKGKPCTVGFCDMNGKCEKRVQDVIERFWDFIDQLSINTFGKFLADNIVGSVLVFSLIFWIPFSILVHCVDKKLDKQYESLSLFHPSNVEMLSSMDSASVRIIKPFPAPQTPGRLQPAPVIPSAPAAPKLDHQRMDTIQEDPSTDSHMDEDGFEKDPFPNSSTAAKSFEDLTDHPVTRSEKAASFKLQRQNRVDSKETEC

For `Cc1cc(COC2CCN(S(=O)(=O)CC(C)C(=O)NO)CC2)c2ccccc2n1` (racemic) [Example 12, (R/S)-2-Methyl-3-({4-[(2-methylquinolin-4-yl)methoxy]piperidin-1-yl}sulphonyl)propionic hydroxamic acid], the melting point is 184.7 °C.
`O=CN(O)C(CS(=O)(=O)N1CCC(OCc2cccc(F)c2)CC1)c1ccccc1` (racemic) [compound 25, (R/S)-2-({4-[(3-fluorobenzyl)oxy]piperidin-1-yl}sulphonyl)-1-phenylethyl(hydroxy)formamide] registered an inhibition at 10 µM in data set [1] of 97%.
On the same count and under the same terms, under `Cc1ccc(COC2CCN(S(=O)(=O)CC(c3cccnc3)N(O)C=O)CC2)cc1C` (racemic) [compound 42, (R/S)-2-({4-[(3,4-dimethylbenzyl)oxy]piperidin-1-yl}sulphonyl)-1-pyridin-3-ylethyl(hydroxy)formamide] stands 99%.
